The record followed here is patent US20240384250A1, “FIBROBLAST GROWTH FACTOR 23 MODULATING COMPOUNDS” (THE UAB RESEARCH FOUNDATION, priority 2021, published 2024).

The target in one experiment is T1, FGF23 (Homo sapiens, UniProt Q9GZV9).
T1 construct: purchased R&D Systems 2604FG025/CF (human) or 2629FG025/CF (mouse)
The experiment can be described thus: Plate-based binding assay, FGF23 coated, FLAG-sKL detected with anti-FLAG HRP. To be noted: 2 mM glucosamine or 12.5 ng/ml tunicamycin for 48 hours. On the procedure: (§1) Proteins were coated on 96-well plates (MaxiSorp; 439454, Thermo Fisher Scientific), and proteins were added to wells in 100 μl of enzyme-linked immunosorbent assay (ELISA) coating buffer (E107, Bethyl Laboratories) with a lid placed overtop and incubated at 4° C. overnight. Plates were washed 5× with 350 μl of assay buffer (50 mM Tris [pH 7.4], 200 mM NaCl, 0.01% Tween 20) on a 50 TS microplate washer (BioTek). Plates were blocked for 1 hour in 200 μl of assay buffer with 0.5% BSA. Plates were washed as before, and proteins were incubated on plates in 100 μl of assay buffer with 0.5% BSA. Proteins or heparin was incubated in orders described in the respective figure legends. Assays using FLAG-tag-based detection were incubated with anti-FLAG coupled to HRP at 1:20,000, and assays using Fc detection were incubated with anti-human Fc coupled to HRP at 1:10,000. […] Reactions were stopped with ELISA stop solution (E115, Bethyl Laboratories) and analyzed using the Synergy HI plate reader (BioTek) at 450 nm wavelength. […] As a control to remove background absorbance values, wells were coated with an equal amount of BSA to match the amount of protein coated in experimental wells and treated the same as experimental wells. […]

The next experiment addresses T2, FGF2 binding to FGFR1c (Homo sapiens, UniProt P11362).
T2 construct: a chimeric protein consisting of the FGFR1 ectodomain and the Fc region of a human IgG; purchased R&D Systems 233-FB/CF; 658FR050
T2 sequence (P11362 22-376 limits assumed): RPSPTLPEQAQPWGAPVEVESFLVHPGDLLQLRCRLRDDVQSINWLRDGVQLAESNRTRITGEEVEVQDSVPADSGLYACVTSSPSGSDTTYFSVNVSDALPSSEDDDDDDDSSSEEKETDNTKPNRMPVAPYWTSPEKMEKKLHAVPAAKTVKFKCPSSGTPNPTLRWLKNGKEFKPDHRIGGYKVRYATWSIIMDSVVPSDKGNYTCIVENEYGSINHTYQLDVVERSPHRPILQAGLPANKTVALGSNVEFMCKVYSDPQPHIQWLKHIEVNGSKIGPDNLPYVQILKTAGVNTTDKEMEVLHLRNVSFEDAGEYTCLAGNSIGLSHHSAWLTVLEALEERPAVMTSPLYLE
The experiment can be described thus: Plate-based binding of paracrine FGF to Fc-FGFR1c with heparin and/or sKL. To be noted: absence of sKL. How it is done: Proteins were coated on 96-well plates (MaxiSorp; 439454, Thermo Fisher Scientific), and proteins were added to wells in 100 μl of enzyme-linked immunosorbent assay (ELISA) coating buffer (E107, Bethyl Laboratories) with a lid placed overtop and incubated at 4° C. overnight. Plates were washed 5× with 350 μl of assay buffer (50 mM Tris [pH 7.4], 200 mM NaCl, 0.01% Tween 20) on a 50 TS microplate washer (BioTek). Plates were blocked for 1 hour in 200 μl of assay buffer with 0.5% BSA. Plates were washed as before, and proteins were incubated on plates in 100 μl of assay buffer with 0.5% BSA. Proteins or heparin was incubated in orders described in the respective figure legends. Assays using FLAG-tag-based detection were incubated with anti-FLAG coupled to HRP at 1:20,000, and assays using Fc detection were incubated with anti-human Fc coupled to HRP at 1:10,000. Plates were washed as above, and 100 μl of 3,3′,5,5′-tetramethylbenzidine (TMB) substrate (E102, Bethyl Laboratories) was added for 15 to 20 minutes until positive wells developed a dark blue color. Reactions were stopped with ELISA stop solution (E115, Bethyl Laboratories) and analyzed using the Synergy HI plate reader (BioTek) at 450 nm wavelength. […] As a control to remove background absorbance values, wells were coated with an equal amount of BSA to match the amount of protein coated in experimental wells and treated the same as experimental wells. To study the effects of sKL on the binding between paracrine FGFs and FGFRs, plates were run as above except coated with paracrine FGFs. Fc-FGFR1 was preincubated with sKL or vehicle for 60 minutes, and then the combination was added to wells and the assay was run as before.

Experiment [1] deals with phosphorylated ERK in HEK293T cells. The experiment can be described thus: ERK phosphorylation in serum-starved HEK293 cells (Western blotting). It counts as cell-based, human. To be noted: FGF 1.1 nM for 10 minutes, absence of sKL. On the procedure:
The sample (20 μl) was loaded onto Mini-PROTEAN TGX Precast Gel 4-20% for experiments with <9 samples (4568094, Bio-Rad) or Criterion TGX Precast Gel 4-20% (5678094, Bio-Rad) for experiments with >9 samples. Gels were run in 1× Tris/Glycine/SDS buffer (1610732, Bio-Rad) at 150 V and stopped when the sample dye reached the end of the gel. Gels were removed and electrotransferred via a semi-dry cassette (1703940, Bio-Rad) in I× Tris/Glycine buffer (1610734, Bio-Rad) with 20% methanol. Gels were transferred onto polyvinylidene diflouride membranes (IPVH00010, Millipore) at 20 V for 1 hour. Membranes were then blocked in 5% dried milk with 0.5% Tween 20 diluted in Tris-buffered saline (TBST; pH 7.5) for 1 hour and probed with antibodies against specific antigens at 1:1000 in TBST with 5% dried milk. Blots were washed 3× for 5 minutes in TBST and probed with HRP-coupled secondary antibodies against specific species at 1:10,000 in TBST with 5% dried milk. Membranes were imaged on the SRX-101A X-ray film developer (Konica Minolta).
To determine the cellular activity of paracrine FGFs, the activation/phosphorylation of ERK in HEK293 cells after treatment was studied. […] Twenty microliters of samples was loaded onto 12% SDS-PAGE gels and analyzed using Western blotting for total and phosphorylated ERK.

Another experiment concerns the target T3, FGFR1c (Homo sapiens, UniProt P11362).
T3 construct: Fc-coupled FGFR ectodomains were immobilized on protein A/G beads; purchased R&D Systems 658FR050
The experiment can be described thus: Plate-based binding assay, FGFR1c coated, FLAG-sKL detected with anti-FLAG HRP. To be noted: 12.5 ng/ml tunicamycin for 48 hours. On the procedure: as §1

T1 sequence (Q9GZV9 25-251, species assumed): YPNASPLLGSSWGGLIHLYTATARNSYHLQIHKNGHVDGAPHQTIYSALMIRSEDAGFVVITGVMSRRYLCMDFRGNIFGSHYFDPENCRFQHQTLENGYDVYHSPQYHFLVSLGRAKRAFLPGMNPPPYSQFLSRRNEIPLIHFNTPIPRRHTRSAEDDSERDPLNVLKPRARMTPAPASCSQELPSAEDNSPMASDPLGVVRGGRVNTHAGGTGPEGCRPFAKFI

`N[C@H]1C(O)O[C@H](CO)[C@@H](O)[C@@H]1O` (some centres unmarked) [Glucosmine, glucosamine, reference compound]: the “FGF23 binding affinity of sKL in media of inhibitor-treated HEK293 cells” value on FGF23 was “had an effect”. In the case of “FGF2: recombinant human FGF2 from R&D Systems”, the “FGF2 binding to FGFR1c” value with FGF2 binding to FGFR1c is “FGFR1c bound FGF2”. Also, in experiment [1], the “ERK phosphorylation induced by FGF” value is “induced ERK phosphorylation”. Consider tunicamycin [reference compound], for which, on FGFR1c, the “FGFR1c binding of sKL in media of inhibitor-treated HEK293 cells” value is recorded as “did not affect the FGFR1c binding”. Also, the “FGF23 binding affinity of sKL in media of inhibitor-treated HEK293 cells” value on FGF23 is “much higher FGF23 binding affinity”.
